The target in this test is Cezanne 1 (Homo sapiens (Human), UniProt Q6GQQ9). Kind of test: Cezanne 1 biochemical IC50 assay. The conditions noted are these: FLAG-Cezanne 1 purified from HEK293T cells; fluorescence polarisation, TAMRA labelled peptide linked to ubiquitin; 30 min preincubation, 2 hr read; read-out: IC50 range. The method, then: The Cezanne 1 construct was PCR amplified and cloned into a pFLAG-CMV-6c vector (Sigma-Aldrich) with an N-terminal FLAG tag. HEK293T cells were transfected with FLAG-Cezanne 1 using TransIT-LT1 transfection reagent (Mirus) according to the manufacturer's instructions. Cells were harvested 48 hours after transfection. Cells were washed once with PBS and scraped in lysis buffer (50 mM Tris, pH 7.5, 150 mM NaCl, 3 mM EDTA, 0.5% NP40, 10% glycerol, 5 mM beta-mercaptoethanol, protease inhibitors (complete mini, Roche) and phosphatase inhibitors (PhosSTOP mini, Roche). Lysates were incubated for 30 min on ice and centrifuged at 4000 rpm for 10 min at 4° C. Soluble supernatant was added to FLAG affinity resin (EZview Red ANTI-FLAG M2 affinity gel, Sigma-Aldrich) equilibrated in low salt buffer (20 mM Tris, pH 7.5, 150 mM NaCl, 0.5 mM EDTA, 5 mM beta-mercaptoethanol) and incubated at 4° C. for 3 hours rotating. The resin was spun at 2000 rpm for 2 min and the supernatant was removed. The resin was washed two times with low salt buffer and one time with high salt buffer (20 mM Tris, pH 7.5, 500 mM NaCl, 0.5 mM EDTA, 5 mM beta-mercaptoethanol, protease inhibitors (complete mini, Roche) and phosphatase inhibitors (PhosSTOP mini, Roche). To elute the bound Cezanne 1, elution buffer (10 mM Tris, pH 7.5, 150 mM NaCl, 0.5 mM EDTA, 10% glycerol, 0.5% NP40, 5 mM beta-mercaptoethanol, 0.15 mg/ml 3× FLAG peptide (Sigma-Aldrich)) was added to the resin and incubated at 4° C. for 2.5 hours while rotating. The resin was centrifuged at 4000 rpm for 30 seconds, and the supernatant containing purified FLAG-Cezanne 1 was removed and stored at −80° C.
Cezanne 1, sequence (Q6GQQ9 whole entry): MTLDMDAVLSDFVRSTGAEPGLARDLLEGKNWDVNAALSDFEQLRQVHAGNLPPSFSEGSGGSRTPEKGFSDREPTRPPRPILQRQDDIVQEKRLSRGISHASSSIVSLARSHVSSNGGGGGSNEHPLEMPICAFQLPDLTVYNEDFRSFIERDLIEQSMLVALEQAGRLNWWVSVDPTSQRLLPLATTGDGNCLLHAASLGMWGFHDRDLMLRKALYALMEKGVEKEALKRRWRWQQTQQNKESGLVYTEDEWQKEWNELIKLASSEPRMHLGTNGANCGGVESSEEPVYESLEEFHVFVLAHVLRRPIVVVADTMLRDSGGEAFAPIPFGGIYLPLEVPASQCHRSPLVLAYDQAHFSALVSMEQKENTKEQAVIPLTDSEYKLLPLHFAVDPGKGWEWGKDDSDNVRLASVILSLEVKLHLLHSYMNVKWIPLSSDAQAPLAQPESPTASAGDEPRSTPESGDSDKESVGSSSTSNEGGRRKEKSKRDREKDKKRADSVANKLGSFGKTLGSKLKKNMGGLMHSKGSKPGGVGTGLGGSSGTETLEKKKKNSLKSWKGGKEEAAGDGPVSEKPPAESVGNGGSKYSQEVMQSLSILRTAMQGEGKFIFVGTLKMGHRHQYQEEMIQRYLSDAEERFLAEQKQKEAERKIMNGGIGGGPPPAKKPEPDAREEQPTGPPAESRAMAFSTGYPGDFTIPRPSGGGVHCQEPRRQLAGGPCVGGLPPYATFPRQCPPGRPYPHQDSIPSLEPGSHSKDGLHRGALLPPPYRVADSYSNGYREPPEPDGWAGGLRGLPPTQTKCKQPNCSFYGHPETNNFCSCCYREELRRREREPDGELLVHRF
Dilution plates were prepared at 21 times the final concentration (2100 μM for a final concentration of 100 μM) in 50% DMSO in a 96-well polypropylene V-bottom plate (Greiner #651201). A typical 8-point dilution series to be 100, 30, 10, 3, 1, 0.3, 0.1, […]. Reactions were performed in duplicate in black 384 well plates (small volume, Greiner 784076) in a final reaction volume of 21 μl. Either 1 μl of 50% DMSO or diluted compound was added to the plate. Cezanne 1 was diluted in reaction buffer (40 mM Tris, pH 7.5, 0.005% Tween 20, 0.5 mg/ml BSA, 5 mM—beta-mercaptoethanol) to the equivalent of 0.005 μl/well and 10 μl of diluted Cezanne 1 was added to the compound. Enzyme and compound were incubated for 30 min at room temp. Reactions were initiated by the addition of 50 nM of TAMRA labelled peptide linked to ubiquitin via an iso-peptide bond as fluorescence polarisation substrate. Reactions were read immediately after addition of substrate and following a 2 hr incubation at room temperature. Readings were performed on a Pherastar Plus (BMG Labtech). λ Excitation 540 nm; λ Emission 590 nm.
(Polarisation of emitted light reports the rotation of a fluorescent probe.)

The structures appear in SMILES notation. pIC50: −log10 of the molar value.

Regarding `N#CN1CCC(F)(C(=O)Nc2ccc(Cl)c(C(F)(F)F)c2)C1` (stereo not shown) [Example 1, N-(4-chloro-3-(trifluoromethyl)phenyl)-1-cyano-3-fluoropyrrolidine-3-carboxamide], the pIC50 (as a rule, the IC50 on a negative log10 scale, so that one unit is a factor of ten) was 5.00 to 6.00. As for `N#CN1CCC(F)(C(=O)Nc2nc(-c3ccccc3)cs2)C1` (stereo not shown) [Example 2, 1-cyano-3-fluoro-N-(4-phenylthiazol-2-yl)pyrrolidine-3-carboxamide], the pIC50 is 5.00 to 6.00. Turning to `N#CN1CCC(F)(C(=O)Nc2ccc3ncsc3c2)C1` (stereo not shown) [Example 3, N-(benzo[d]thiazol-6-yl)-1-cyano-3-fluoropyrrolidine-3-carboxamide], the negative logarithm of the IC50 (pIC50) is 6.00 to 7.00. In the case of `N#CN1CCC(F)(C(=O)Nc2cnc3ccccc3c2)C1` (stereo not shown) [Example 4, 1-cyano-3-fluoro-N-(quinolin-3-yl)pyrrolidine-3-carboxamide], the pIC50 is 5.00 to 6.00. Next, `N#CN1CCC(F)(C(=O)Nc2ccc3ncccc3c2)C1` (stereo not shown) [Example 5, 1-cyano-3-fluoro-N-(quinolin-6-yl)pyrrolidine-3-carboxamide]: 5.00 to 6.00. Next, `Cc1nc(-c2cccc(NC(=O)C3(F)CCN(C#N)C3)c2)cs1` (stereo not shown) [Example 6, 1-cyano-3-fluoro-N-(3-(2-methylthiazol-4-yl)phenyl)pyrrolidine-3-carboxamide]: 5.00 to 6.00; `N#CN1CCC(F)(C(=O)Nc2cccc(Oc3ccccc3)c2)C1` (stereo not shown) [Example 7, 1-cyano-3-fluoro-N-(3-phenoxyphenyl)pyrrolidine-3-carboxamide]: 5.00 to 6.00.

`N#CN1CCC(F)(C(=O)Nc2ncc(-c3ccccc3)s2)C1` (stereo not shown) [Example 8, 1-cyano-3-fluoro-N-(5-phenylthiazol-2-yl) pyrrolidine-3-carboxamide]: the pIC50 was 6.00 to 7.00. Turning to `N#CN1CC[C@](F)(C(=O)Nc2ncc(-c3ccccc3)s2)C1` [Example 9, (R)-1-cyano-3-fluoro-N-(5-phenylthiazol-2-yl) pyrrolidine-3-carboxamide], the pIC50 is 6.00 to 7.00. For `N#CN1CCC(F)(C(=O)Nc2cc(-c3ccccc3)on2)C1` (stereo not shown) [Example 10, 1-cyano-3-fluoro-N-(5-phenylisoxazol-3-yl)pyrrolidine-3-carboxamide], the pIC50 is 6.00 to 7.00. As for `N#CN1CCC(F)(C(=O)Nc2cn(-c3ccccc3)cn2)C1` (stereo not shown) [Example 11, 1-cyano-3-fluoro-N-(1-phenyl-1H-imidazol-4-yl)pyrrolidine-3-carboxamide], the negative logarithm of the IC50 (pIC50) was 5.00 to 6.00. In the case of `N#CN1CC[C@@](F)(C(=O)Nc2cnn(-c3ccccc3)c2)C1` [Example 12, (S)-1-cyano-3-fluoro-N-(1-phenyl-1H-pyrazol-4-yl)pyrrolidine-3-carboxamide], the pIC50 is 5.00 to 6.00. The figure for `N#CN1CC[C@](F)(C(=O)Nc2cnn(-c3ccccc3)c2)C1` [Example 13, (R)-1-cyano-3-fluoro-N-(1-phenyl-1H-pyrazol-4-yl)pyrrolidine-3-carboxamide] is more than 7.00; for `N#Cc1ccc(-n2cnc(NC(=O)[C@@]3(F)CCN(C#N)C3)c2)cc1` [Example 14, (R)-1-cyano-N-(1-(4-cyanophenyl)-1H-imidazol-4-yl)-3-fluoropyrrolidine-3-carboxamide] it is 5.00 to 6.00; for `N#CN1CC[C@](F)(C(=O)Nc2cnn(Cc3ccccc3)c2)C1` [Example 15, (R)—N-(1-benzyl-1H-pyrazol-4-yl)-1-cyano-3-fluoropyrrolidine-3-carboxamide] it is 5.00 to 6.00. Next, `N#CN1CCC(F)(C(=O)Nc2nc3ccc(-c4cn[nH]c4)cc3s2)C1` (stereo not shown) [Example 16, N-(6-(1H-pyrazol-4-yl)benzo[d]thiazol-2-yl)-1-cyano-3-fluoropyrrolidine-3-carboxamide]: 5.00 to 6.00. Next, `N#CN1CCC(F)(C(=O)Nc2nc3ccc(-c4ccccc4)cc3s2)C1` (stereo not shown) [Example 17, 1-cyano-3-fluoro-N-(6-phenylbenzo[d]thiazol-2-yl)pyrrolidine-3-carboxamide]: 5.00 to 6.00; `N#CN1CCC(F)(C(=O)Nc2ncc(-c3cccc4[nH]ncc34)s2)C1` (stereo not shown) [Example 18, N-(5-(1H-indazol-4-yl)thiazol-2-yl)-1-cyano-3-fluoropyrrolidine-3-carboxamide]: 6.00 to 7.00; `N#CN1CCC(F)(C(=O)Nc2cc(-c3ccccc3)no2)C1` (stereo not shown) [Example 20, 1-cyano-3-fluoro-N-(3-phenylisoxazol-5-yl)pyrrolidine-3-carboxamide]: 6.00 to 7.00. Regarding `N#CN1CC[C@](F)(C(=O)Nc2cc(-c3ccccc3)no2)C1` [Example 21, (R)-1-cyano-3-fluoro-N-(3-phenylisoxazol-5-yl)pyrrolidine-3-carboxamide], the pIC50 is 6.00 to 7.00. `N#CN1CCC(F)(C(=O)Nc2ncc(-c3cccc(C(N)=O)c3)s2)C1` (stereo not shown) [Example 22, N-(5-(3-carbamoylphenyl)thiazol-2-yl)-1-cyano-3-fluoropyrrolidine-3-carboxamide]: the pIC50 is 6.00 to 7.00. The figure for `CNC(=O)c1cccc(-c2cnc(NC(=O)C3(F)CCN(C#N)C3)s2)c1` (stereo not shown) [Example 23, 1-cyano-3-fluoro-N-(5-(3-(methylcarbamoyl)phenyl)thiazol-2-yl)pyrrolidine-3-carboxamide] is 6.00 to 7.00.

In the case of `CNC(=O)c1cccc(-c2cnc(NC(=O)[C@@]3(F)CCN(C#N)C3)s2)c1` [Example 24, (R)-1-cyano-3-fluoro-N-(5-(3-(methylcarbamoyl)phenyl)thiazol-2-yl)pyrrolidine-3-carboxamide], the pIC50 is 6.00 to 7.00. The figure for `N#CN1CCC(F)(C(=O)Nc2ncc(-c3cccc(-n4ccnc4)c3)s2)C1` (stereo not shown) [Example 25, N-(5-(3-(1H-imidazol-1-yl)phenyl)thiazol-2-yl)-1-cyano-3-fluoropyrrolidine-3-carboxamide] is 6.00 to 7.00; for `N#CN1CCC(F)(C(=O)Nc2cc(-c3cccc(-n4ccnc4)c3)no2)C1` (stereo not shown) [Example 26, N-(3-(3-(1H-imidazol-1-yl)phenyl)isoxazol-5-yl)-1-cyano-3-fluoropyrrolidine-3-carboxamide] it is 6.00 to 7.00; for `N#CN1CC[C@](F)(C(=O)Nc2cc(-c3cccc(-n4ccnc4)c3)no2)C1` [Example 27, (R)—N-(3-(3-(1H-imidazol-1-yl)phenyl)isoxazol-5-yl)-1-cyano-3-fluoropyrrolidine-3-carboxamide] it is 6.00 to 7.00. Next, `N#CN1CCC(F)(C(=O)Nc2cn3cc(-c4ccn[nH]4)ccc3n2)C1` (stereo not shown) [Example 28, N-(6-(1H-pyrazol-5-yl)imidazo[1,2-a]pyridin-2-yl)-1-cyano-3-fluoropyrrolidine-3-carboxamide]: 6.00 to 7.00.

Turning to `CNC(=O)c1cccc(-c2ccc3nc(NC(=O)C4(F)CCN(C#N)C4)sc3c2)c1` (stereo not shown) [Example 29, 1-cyano-3-fluoro-N-(6-(3-(methylcarbamoyl)phenyl)benzo[d]thiazol-2-yl)pyrrolidine-3-carboxamide], the pIC50 is 5.00 to 6.00.

(Values after patent US10590075B2, “Cyanopyrrolidine derivatives as inhibitors for DUBs” (Mission Therapeutics Limited, priority 2015, dated 2020).)
